Results published in patent US12102432B2, “Uses of transdermal glomerular filtration rate measurement in continuous renal replacement therapy” (MediBeacon Inc., priority 2018, dated 2024).
“Also recorded” adds a separate entry of the source.

Assays:
[1] = Adsorption of MB-102 to CRRT apparatus, in vitro CVVH model; format: in vitro ADME, bovine; conditions: for mean percent change at the end of experiment: average of 6 experiments, 60 min
Experimental: As an initial step, it was determined if the compound MB-102 adsorbs onto the hemodiafilter, tubing or other parts of the CRRT instrument. This study used a continuous venovenous hemofiltration (CVVH) configuration to assess MB-102 adsorptive clearance with a previously validated in vitro CVVH model using 1 L of pH regulated, citrate-anti-coagulated bovine blood. Using a Braun DIAPACT™ CRRT system, two different hemodiafilters were tested: the HF1400 and the M150 hemodiafilters. New bovine blood, hemodiafilters, and CRRT tubing sets were used in each experiment. The blood was continuously stirred and maintained at 37° C. in a water bath during all experiments. Reconstituted MB-102 was added to the blood to achieve a final concentration of ˜6.2 mg/L. Urea was used as a control and added to the blood to produce a blood urea nitrogen (BUN) concentration of ˜75 mg/dL. Blood flow rates of 200 mL/min with an ultrafiltration rate (Quf) of 33 mL/min were tested. This maximized MB-102 contact with the membranes, both on the blood side and via convection through the hemodiafilter membrane. A closed system was developed to maintain a constant volume in the extracorporeal system. The effluent was used as the replacement fluid which was returned to the blood as a post-filter replacement fluid to maintain a constant blood volume. The CRRT instrument was primed with normal saline before operation, consequently the urea and MB-102 dilution caused by the residual priming solution was accounted for. Blood samples were collected from the pre-filter port at 0 (baseline), 5 (at which time mixing was complete), 10, 20, 30, and 60 minutes. Each experiment was repeated six times with new hemodiafilters and tubing sets.
Equations used to calculate the dilution factor and adsorption are as follows:
[formula] wherein C0 is the concentration of MB-102 in the pre-filter at time=0 minutes; and C60 is the concentration of MB-102 in the pre-filter at time=60 minutes.
[formula] where [Urea0] is the urea concentration in the pre-filter at time=0 minutes; and [Urea60] is the urea concentration in the pre-filter at time=60 minutes.
All blood samples were collected and centrifuged at 3000 rpm for 10 minutes. The plasma and effluent samples were transferred to cryovials in duplicate and stored at −80° C. until analysis. BUN concentrations were analyzed with Advia 1800 (Siemens Healthcare Diagnostic Inc., Tarrytown, N.Y., USA) having a lower limit of quantification of 5 mg/dL. […]

[2] = In vivo clearance by CVVH in porcine model with bilateral nephrectomy; design: species or system Swine
Experimental: Swine (3 male and 3 female, for both CVVH and CVVHD modalities) weighing 35-40 kg were used. In this model, a total functional nephrectomy was achieved by ligation of all renal arteries. Animals were inspected by professional veterinary staff within 48 hours of arrival. Any underlying infections or parasitism was treated based on veterinary recommendations.
Prior to study, the animals were fasted overnight (with water ad libitum) to reduce the risk of aspiration. On the morning of the study, animals were sedated with an intramuscular injection of Telazol/Xylazine (or a Ketamine/xylazine combination) at recommended doses and transported to the operating theatre. Pigs were then anesthetized via inhalation of 5% isoflurane in oxygen via mask. A catheter was placed in the marginal ear vein to provide immediate venous access for further medications and IV fluids.
Pigs were orotracheally intubated and the isoflurane concentration reduced to 1%-3% to maintain anesthesia for the duration of the experiment. Pigs were mechanically ventilated using a tidal volume of 10 mL/kg and respiratory rate adjusted to keep a P(CO2) of 40±2 mmHg. A three lead electrocardiogram was used to monitor heart rate and rhythm. Core body temperature was measured with a rectal thermistor probe and maintained at 37-39° C. with the use of a circulating water blanket.
Hair was removed from the ventral neck, abdominal and/or the femoral regions, and these sites were prepared for aseptic surgery. Lidocaine was injected at incision site(s). When a surgical plane of anesthesia was reached, the right carotid artery was approached via cut down incision and cannulated for continuous blood pressure monitoring. This facilitated withdrawal of blood samples for the study and for the determination of respiratory gases, acid-base status and glucose concentration. A catheter was placed in the right jugular/femoral vein to infuse medications or replacement fluids and an 11 Fr hemodialysis catheter was placed into the left jugular vein for both CVVH and CVVHD procedures.
The abdomen was then opened via a midline laparotomy. The renal hilum was identified, and ties were placed around the renal artery or arteries: for partial or total ligation as dictated by study requirements (full-function nephrectomy via total ligation of all renal arteries, and full-function nephrectomy of one kidney and partial ligation of the second kidney). Perivascular flow probes were placed around the proximal renal artery of the kidneys in situ, as required. […] A purse-sting suture was placed in the urinary bladder and a small cystotomy incision was performed to advance a Foley catheter for urine collection and quantification, as required.
Due to the length of time of study, the abdomen was closed in 2-3 layers with appropriate suture material to prevent desiccation of tissues. Suture patterns allowed for external extension of tubing and flow probe lines for equipment attachment as required. Following complete instrumentation, the pig was stabilized. Vital signs were monitored continuously and, once stable, either the CVVH and CVVHD experiment was initiated.
After taking a pre-MB-102 blood sample (baseline), a dose of 6 mg/kg of MB-102 was injected as a single bolus, followed by a 90 minute period of equilibration, to allow for MB-102 systemic redistribution (see FIGS. 7 and 13 for equilibration of fluorescent signal detected by the renal monitoring assembly). Thirty minutes after the MB-102 injection, Meropenum was infused for 30 minutes, which reached a peak concentration in blood ˜1 hr after the start of the infusion. After drug equilibration, CRRT was initiated (either CVVH or CVVHD) at a blood flow rate (BFR) of 100 mL/min with corresponding 20 mL/kg/hr effluent rate during a time-course of 90 minutes (with collections at 0, 30, 60, 90 minutes). […]

[3] = assembly on chest (QLS26), blood flow rate 100, effluent flow rate 20 mL/min, 1st of four regions
[4] = assembly on chest (QLS26), blood flow rate 100, effluent flow rate 20 mL/min, 3rd of four regions
[5] = assembly on chest (QLS26), blood flow rate 200, effluent flow rate 35 mL/min, 2nd of four regions
[6] = assembly on chest (QLS26), blood flow rate 200, effluent flow rate 35 mL/min, 4th of four regions
[7] = assembly on sternum (QLS25), blood flow rate 100, effluent flow rate 20 mL/min, 1st of four regions
[8] = assembly on sternum (QLS25), blood flow rate 100, effluent flow rate 20 mL/min, 3rd of four regions
[9] = assembly on sternum (QLS25), blood flow rate 200, effluent flow rate 35 mL/min, 2nd of four regions
[10] = assembly on sternum (QLS25), blood flow rate 200, effluent flow rate 35 mL/min, 4th of four regions

mean percent change at the end of experiment ([1]; HF1400 hemodiafilter): 18.7% | mean percent change at the end of experiment ([1]; M150 hemodiafilter): 18.9% | MB-102 Clearance Rate Constant [2, 3]: 0.1129 h⁻¹ | RDTC [2, 3]: 8.86 h | MB-102 Clearance Rate Constant [2, 4]: 0.0879 h⁻¹ | RDTC [2, 4]: 11.38 h | MB-102 Clearance Rate Constant [2, 5]: 0.1314 h⁻¹ | RDTC [2, 5]: 7.61 h | MB-102 Clearance Rate Constant [2, 6]: 0.1308 h⁻¹ | RDTC [2, 6]: 7.64 h | MB-102 Clearance Rate Constant [2, 7]: 0.1145 h⁻¹ | RDTC [2, 7]: 8.73 h | MB-102 Clearance Rate Constant [2, 8]: 0.0763 h⁻¹ | RDTC [2, 8]: 13.11 h | MB-102 Clearance Rate Constant [2, 9]: 0.145 h⁻¹ | RDTC [2, 9]: 6.90 h | MB-102 Clearance Rate Constant [2, 10]: 0.1238 h⁻¹ | RDTC [2, 10]: 8.08 h
Structure (SMILES): Nc1nc(C(=O)N[C@H](CO)C(=O)O)c(N)nc1C(=O)N[C@H](CO)C(=O)O [MB-102, (2R,2′R)-2,2′-((3,6-diaminopyrazine-2,5-dicarbonyl)bis(azanediyl))bis(3-hydroxypropanoic acid)]
adsorption to CRRT materials (tubing, hemodiafilters) ([1]; HF1400 and M150 hemodiafilters): not observed; also recorded: does not bind
